Data taken from US20230002505A1, “TREATMENT OF THERAPY-RESISTANT HER-2 POSITIVE BREAST CANCER” (OREGON HEALTH & SCIENCE UNIVERSITY, priority 2017, published 2023).

Legend:
Type in all cases: cell-based, human
[1] = system: 21MT1 cells; test: In vitro proliferation of parental 21MT1 cells after panitumumab treatment; conditions: parental 21MT1, HER-2 positive, trastuzumab and lapatinib resistant; blocking HER-1 function
[2] = system: JimT1 cells; test: In vitro proliferation of parental JimT1 cells after panitumumab treatment; conditions: parental JimT1, HER-2 positive, trastuzumab and lapatinib resistant; blocking HER-1 function
[3] = system: HCC-1954 cells; test: In vitro proliferation of parental HCC-1954 cells after panitumumab treatment; conditions: parental HCC-1954, HER-2 positive, trastuzumab and lapatinib resistant; blocking HER-1 function

Measured: proliferation in vitro

Panitumumab
decreased proliferation: all assays above
